Assay results as given in the supplement of paper PMC10307832.

Assays:
Experiment in all cases: relative viability (nuclei count vs DMSO), 5 days (fraction); higher = more cells survive
[1] = compound: CN(NC(=O)CC(=O)NN(C)C(=S)c1ccccc1)C(=S)c1ccccc1 [Elesclomol]
Outline: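 On vehicle-anchored 1536-well plates, lung cancer cell lines held overnight at 37 °C were pinned with five library-drug doses (not always all listed) spaced by √10. With no medium change over 5 days, they were then fixed, permeabilised and Hoechst-stained in one step and imaged at 4×. MetaXpress counted nuclei, and viability is the median across plates of treated-well over vehicle-well nuclei. Acceptance needed control CV below 25% and at least one doubling.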

[2] = compound: CN(NC(=O)CC(=O)NN(C)C(=S)c1ccccc1)C(=S)c1ccccc1 [Elesclomol] + CS(=O)(=O)N1CCN(Cc2cc3nc(-c4cccc5[nH]ncc45)nc(N4CCOCC4)c3s2)CC1 [Pictilisib] (partner 1 µM)
Outline: (§1)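 For relative viability, nuclei counts in treated wells were divided by those in vehicle wells. Lung cancer cell lines had been pin-tool dosed in 1536-well plates the day after seeding and cultured for 5 days, then fixed and stained in one step (final 0.05% Triton X-100, 1% formaldehyde, 1 ug/ml Hoechst) and imaged at 4×. Doses were one drug alone or a fixed anchor-drug dose plus five library-drug doses (not always all listed) in √10 steps, and values are duplicate-plate medians.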

[3] = compound: CN(NC(=O)CC(=O)NN(C)C(=S)c1ccccc1)C(=S)c1ccccc1 [Elesclomol] + COc1cccc2cc(-c3nc([C@H]4CC[C@H](C(=O)O)CC4)n4ncnc(N)c34)[nH]c12 [OSI-027] (partner 0.5 µM)
Outline: as §1

[4] = compound: CN(NC(=O)CC(=O)NN(C)C(=S)c1ccccc1)C(=S)c1ccccc1 [Elesclomol] + CC1(C)CCC(c2ccc(Cl)cc2)=C(CN2CCN(c3ccc(C(=O)NS(=O)(=O)c4ccc(N[C@H](CCN5CCOCC5)CSc5ccccc5)c(S(=O)(=O)C(F)(F)F)c4)cc3)CC2)C1 [Navitoclax] (partner 0.5 µM)
Outline: as §1

[5] = compound: CN(NC(=O)CC(=O)NN(C)C(=S)c1ccccc1)C(=S)c1ccccc1 [Elesclomol] + Nc1ncn([C@H]2C[C@H](O)[C@@H](CO)O2)c(=O)n1 [Decitabine] (partner 2 µM)
Outline: as §1

| Cell Line | relative viability ([1]; 0.003162 µM) | relative viability ([1]; 0.01 µM) | relative viability ([1]; 0.03162 µM) | relative viability ([1]; 0.1 µM) | relative viability ([2]; first compound 0.003162 µM) | relative viability ([2]; first compound 0.01 µM) | relative viability ([2]; first compound 0.03162 µM) | relative viability ([2]; first compound 0.1 µM) | relative viability ([3]; first compound 0.003162 µM) | relative viability ([3]; first compound 0.01 µM) | relative viability ([3]; first compound 0.03162 µM) | relative viability ([3]; first compound 0.1 µM) | relative viability ([4]; first compound 0.003162 µM) | relative viability ([4]; first compound 0.01 µM) | relative viability ([4]; first compound 0.03162 µM) | relative viability ([4]; first compound 0.1 µM) | relative viability ([5]; first compound 0.003162 µM) | relative viability ([5]; first compound 0.01 µM) | relative viability ([5]; first compound 0.03162 µM) | relative viability ([5]; first compound 0.1 µM) |
| --- | --- | --- | --- | --- | --- | --- | --- | --- | --- | --- | --- | --- | --- | --- | --- | --- | --- | --- | --- | --- |
| HCC-366 | 1.04 | 1.08 | 0.924 | 0.202 | 0.135 | 0.123 | 0.211 | 0.0502 | 1.05 | 0.139 | 0.823 | 0.0338 | 1.06 | 1.07 | 1.02 | 0.137 | 0.39 | 0.31 | 0.0994 | 0.0263 |
| HCC-827 | 1.05 | 1.02 | 1.02 | 1 | 1.03 | 0.988 | 1.04 | 0.811 | 0.741 | 0.758 | 0.722 | 0.532 | 1.02 | 0.995 | 1 | 0.756 | 0.344 | 0.35 | 0.283 | 0.252 |
| HOP-62 | 1.01 | 0.83 | 0.89 | 0.299 | 0.694 | 0.269 | 0.582 | 0.239 | 0.823 | 0.717 | 0.701 | 0.316 | 0.904 | 0.553 | 0.647 | 0.302 | 0.189 | 0.231 | 0.214 | 0.137 |
| IA-LM | 0.855 | 0.374 | 0.0911 | 0.0299 | 0.275 | 0.126 | 0.052 | 0.0237 | – | – | – | – | 0.415 | 0.133 | 0.0436 | 0.0194 | – | – | – | – |
| LC-2-ad | 0.963 | 0.568 | 0.241 | 0.19 | 0.419 | 0.195 | 0.102 | 0.0937 | 0.52 | 0.231 | 0.273 | 0.276 | 0.521 | 0.213 | 0.062 | 0.099 | 0.763 | 0.653 | 0.391 | 0.218 |
| LCLC-97TM1 | 0.735 | 0.844 | 0.738 | 0.0887 | 0.173 | 0.118 | 0.115 | 0.0666 | 0.549 | 0.164 | 0.49 | 0.15 | 0.368 | 0.298 | 0.253 | 0.115 | 0.258 | 0.198 | 0.211 | 0.131 |
| LCLC-103H | 1 | 0.856 | 0.993 | 0.842 | 0.628 | 0.471 | 0.736 | 0.457 | 0.461 | 0.409 | 0.463 | 0.237 | – | – | – | – | 0.765 | 0.686 | 0.734 | 0.742 |
| LK-2 | 0.796 | 0.715 | 0.507 | 0.157 | 0.418 | 0.177 | 0.149 | 0.117 | 0.232 | 0.224 | 0.179 | 0.116 | 0.671 | 0.247 | 0.142 | 0.115 | 0.288 | 0.314 | 0.276 | 0.113 |
| LOU-NH91 | 1.06 | 0.856 | 0.798 | 0.764 | 0.447 | 0.511 | 0.45 | 0.424 | 0.786 | 0.701 | 0.595 | 0.714 | 0.672 | 0.465 | 0.307 | 0.282 | 0.868 | 0.775 | 0.756 | 0.72 |
| LU99A | 0.919 | 0.811 | 0.986 | 0.544 | 0.316 | – | 0.325 | 0.137 | 0.309 | 0.259 | 0.295 | 0.223 | 0.79 | – | 0.881 | 0.132 | 0.904 | 0.807 | 0.794 | 0.556 |
| LXF-289 | 1.03 | 0.956 | 0.95 | 0.772 | 0.781 | 0.709 | 0.749 | 0.501 | 0.82 | 0.328 | 0.803 | 0.589 | 0.851 | 0.924 | 0.875 | 0.575 | 0.395 | 0.39 | 0.389 | 0.253 |
| NCI-H358 | 0.752 | 0.225 | 0.215 | 0.196 | 0.24 | 0.196 | 0.191 | 0.163 | 0.276 | 0.116 | 0.0873 | 0.087 | – | – | – | – | 0.171 | 0.108 | 0.0885 | 0.0726 |
| NCI-H522 | 1.03 | 0.877 | 0.801 | 0.53 | – | – | – | – | 0.716 | 0.62 | 0.634 | 0.457 | – | – | – | – | 0.693 | 0.649 | 0.7 | 0.469 |
| NCI-H650 | 1 | 0.696 | 0.332 | 0.249 | 0.875 | 0.361 | 0.276 | 0.256 | 0.555 | 0.382 | 0.229 | 0.254 | – | – | – | – | 0.343 | 0.281 | 0.211 | 0.16 |
| NCI-H661 | 0.91 | 0.807 | 0.374 | 0.298 | 0.356 | 0.373 | 0.214 | 0.212 | 0.617 | 0.283 | 0.242 | 0.168 | – | – | – | – | 0.58 | 0.468 | 0.296 | 0.239 |
| NCI-H1703 | 0.273 | 0.173 | 0.0832 | 0.101 | 0.198 | 0.106 | 0.133 | 0.128 | – | – | – | – | 0.141 | 0.0995 | 0.116 | 0.107 | – | – | – | – |
| NCI-H2228 | 0.923 | 0.881 | 0.435 | 0.078 | 0.395 | 0.352 | 0.132 | 0.0486 | 0.568 | 0.27 | 0.188 | 0.0467 | 0.739 | 0.586 | 0.325 | 0.0519 | – | – | – | – |
| SW 900 | 0.871 | 0.701 | 0.251 | 0.0829 | – | – | – | – | 0.615 | 0.287 | 0.121 | 0.0545 | – | – | – | – | 0.404 | 0.358 | 0.204 | 0.13 |
